Columns and labels:
Format in all cases: physicochemical
[1] = Solubility in Rhodiasolv IRIS solvent; conditions: Rhodiasolv IRIS (dimethyl-2-methyl glutarate); wt %
From the text: A compound with greater solubility allows for a formulation or material with a greater concentration of coloured molecule to be incorporated into a composition. This may allow for increasing the contrast ratio for a compound with a lesser absorbance at PSS. Examples of solubilizing groups for the compound include alkoxy, ether, ester or siloxy groups. In various embodiments, compounds may be soluble in the solvent component at room temperature at about 6 wt %, 7 wt %, 8 wt %, 9 wt %, 10 wt % or greater for testing to determine whether a compound has application as an exterior glazing or optical filter. If the solubility of a compound in the solvent component is too low, then insufficient darkening may be achieved in the ring-closed configuration, depending on conditions of use for the compound.
(§1) Chromophore solutions in Rhodiasolv IRIS were prepared at 1 to 10 wt % loading. Solutions were prepared in a glovebox by charging the chromophore and Rhodiasolv IRIS to a trace-clean vial, and the solution was stirred on a hotplate at 90° C. for 2-24 hours. After cooling, the chromophore solution was injected into glass weathering cells and the fill and vent ports were sealed with a thin disc of Kalrez (FFKM Perfluorinated Elastomer) and secured with a clamp and set-screw. The weathering cells were filled and sealed inside the glove box.

[2] = Photostability: xenon arc weathering of chromophore solutions, LCMS analysis; conditions: for Ketone (%) / Minus-2HF (%) / Minus-HF (%) / Sulfone (%) / Chromophore Remaining (%): xenon arc, 82° C. bp; for Ketone (%) / Minus-2HF (%) / Minus-HF (%) / Sulfone (%): linearly interpolated to 0.5 MJ/m2 @ 340 nm; for Chromophore Remaining (%): linearly interpolated to 0.5 MJ/m2 @ 340 nm of exposure energy; for Photostability (in words): weathering experiments
From the text: Photostability (resistance to light-induced degradation) may be measured by the amount of time required for the compound, or a material comprising the compound, to degrade to a certain point under light exposure. The light exposure may be constant, or cyclic. The light transmittance or absorbance of the compound, or material comprising the compound, may be determined at both a light state and dark state prior to testing, to determine a contrast ratio. During testing, the contrast ratio may be monitored (periodically or continually), the compound or material may be determined to have failed when the contrast ratio falls outside, or below, a selected range, or when the contrast ratio decreases to a percentage of the original contrast ratio. Photostability may also be expressed with reference to a light source or with reference to a type of light.
as §1
Measurement of Photostability
A. Fabrication of cuvettes. Two holes of 0.8 mm diameter were drilled at opposite ends in a 75×50 mm piece of float glass using a diamond drill bit in a rotary tool. The drilled glass and a matching piece of undrilled glass were then cleaned using hot soapy water, rinsed with deionized water and acetone and then dried with compressed air. A 5 mm wide frame was cut from a sheet of 50 μm thickness EVAL EF-F using a laser engraver. The EVAL frame was placed around the perimeter of one sheet of glass and sandwiched by the second sheet of glass. The glass-EVAL-glass sandwich was secured with tape and heated under vacuum (10 mmHg) for 30 minutes at 170° C. in a vacuum bag. After cooling, a third piece of float glass was PVB laminated to the non-drilled side of the sealed glass cells using Trosifol UV Extra Protect B150 PVB (400 nm UV cut-off).
B. Xenon arc weathering protocol. Devices were exposed to simulated weathering conditions inside a Xe-3-HS xenon arc chamber, manufactured by Q-labs Inc. The samples were weathered according to the following table. The devices were exposed to these conditions continuously, with no dark or spray cycles included.
C. Analysis of weathered chromophore solutions by LCMS. The set-screws, metal clamps and Kalrez plugs were removed from the cuvette to expose the fill port. A 5 mL plastic syringe (NORM-JECT®) equipped with a tip (Precision Tips, 0.010″ RED) was inserted into one fill port and the chromophore solution was withdrawn from the cuvette. The chromophore solution was then injected into a 2 mL amber vial (part number 5182-0716, Agilent Technology) prefilled with 1.5 mL LC-MS grade acetonitrile (HiPerSolbe CHROMANORM Acetonitrile, VWR BDH Chemicals). An aliquot of the acetonitrile solution (2 μL) was injected into the LC-MS system (Agilent Infinity 1290 LC-MS system with diode array detector) through an autosampler mechanism. Species in the injected sample were separated through a reverse phase column (Zorbax SB-C18, 2.1×50 mm, 1.8 μm, operated at 40° C.), using a mixture of acetonitrile (mixed with 1% formic acid v/v ratio), methanol (HiPerSolbe CHROMANORM Methanol, VWR BDH Chemicals) and water (HiPerSolbe CHROMANORM Water, VWR BDH Chemicals) as mobile phase.

[3] = Oxidation potential of ring-closed and ring-open isomers; conditions: no unit printed in table (V relative to Ag/AgCl)
From the text: In various embodiments, at a PSS, some of the chromophore will be in the ring-closed isomer, with a small, but non-zero portion of ring-open isomer. The oxidation potential of a ring-open isomer may be more anodic than the oxidation potential of a ring-closed isomer. Exposure to a potential that is too far beyond what is necessary to oxidize the ring-closed isomer may result in oxidation of the ring-open isomer, which may be irreversible and result in electrochemically-induced degradation of the chromophore.
Thus, in various embodiments, an anodic chromophore may have an oxidation potential of from about 0.4 V to 1.2 V for the ring-closed isomer and about 1.0 V to 2.5 V for the ring-open isomer relative to an Ag/AgCl reference electrode. In various embodiments, the oxidation potential for the ring-open isomer is about 250 mV more anodic than the oxidation potential for the ring-closed isomer. For example, the oxidation potential may be about 260 mV, about 280 mV, about 300 mV, about 320 mV, about 340 mV, about 360 mV, about 380 mV, about 400 mV, about 420 mV, about 440 mV, or about 460 mV more anodic than the oxidation potential for the ring-closed isomer.

[4] = 10 wt %, interpolated to 0.5 MJ/m^2 of energy exposure at 340 nm
[5] = 1 wt %, interpolated to 0.5 MJ/m^2 of energy exposure at 340 nm

Row | SMILES | Solubility in Rhodiasolv IRIS [1] | Ketone (%) ([2]; 10 wt % in Rhodiasolv IRIS) | Minus-2HF (%) ([2]; 10 wt % in Rhodiasolv IRIS) | Minus-HF (%) ([2]; 10 wt % in Rhodiasolv IRIS) | Sulfone (%) ([2]; 10 wt % in Rhodiasolv IRIS) | Chromophore Remaining (%) ([2]; 10 wt % in Rhodiasolv IRIS) | Ratio of chromophore remaining relative to S340 [2, 4] | Photostability (in words) [2] | RC [O] (oxidation potential of ring-closed isomer) [3] | RO [O] (oxidation potential of ring-open isomer) [3] | Formation of the Minus-HF degradation product (in words) [2] | other results
1 | CC(C)(C)c1ccc(-c2oc3cc(OCCN4CCOC4=O)c(OCCN4CCOC4=O)cc3c2C2=C(c3cc(-c4cc5c(s4)C(C)(C)CCC5(C)C)sc3-c3cc4c(s3)C(C)(C)CCC4(C)C)C(F)(F)C(F)(F)C2(F)F)cc1 [Chromophore S390, 3,3′-(((3-(2-(2,5-bis(4,4,7,7-tetramethyl-4,5,6,7-tetrahydrobenzo[b]thiophen-2-yl)thiophen-3-yl)-3,3,4,4,5,5-hexafluorocyclopent-1-en-1-yl)-2-(4-(tert-butyl)phenyl)benzofuran-5,6-diyl)bis(oxy))bis(ethane-2,1-diyl))bis(oxazolidin-2-one)] | >10% | 0.0% | 0.0% | 0.0% | 0.0% | 98.8% | 1.08 | high photostability | 0.93 | 1.29 | – | –
2 | CC(C)(C)c1ccc(-c2oc3cc(OCCN4C(=O)CCC4=O)c(OCCN4C(=O)CCC4=O)cc3c2C2=C(c3cc(-c4cc(C(C)(C)C)cs4)sc3-c3cc(C(C)(C)C)cs3)C(F)(F)C(F)(F)C2(F)F)cc1 | >10% | 0.0% | 0.0% | 0.0% | 0.0% | 95.3% | 1.05 | high photostability | 1.05 | 1.42 | – | –
3 | CCOC(=O)CCCOc1cc2oc(-c3ccc(C(C)(C)C)cc3)c(C3=C(c4cc(-c5sc(C(C)(C)C)cc5C)sc4-c4sc(C(C)(C)C)cc4C)C(F)(F)C(F)(F)C3(F)F)c2cc1OCCCC(=O)OCC [Chromophore S384, diethyl 4,4′-((2-(4-(tert-butyl)phenyl)-3-(2-(5,5″-di-tert-butyl-3,3″-dimethyl-[2,2′:5′,2″-terthiophen]-3′-yl)-3,3,4,4,5,5-hexafluorocyclopent-1-en-1-yl)benzofuran-5,6-diyl)bis(oxy))dibutanoate] | >10% | 0.0% | 0.0% | 0.0% | 1.3% | 97.2% | 1.07 | – | 0.87 | 1.31 | does not occur | –
4 | CCOC(=O)CCCOc1cc2oc(-c3ccc(C(C)(C)C)cc3)c(C3=C(c4cc(-c5cc6c(s5)C(C)(C)CCC6(C)C)sc4-c4cc5c(s4)C(C)(C)CCC5(C)C)C(F)(F)C(F)(F)C3(F)F)c2cc1OCCCC(=O)OCC [Chromophore S387, ethyl 4-[(3-{2-[2,5-bis(4,4,7,7-tetramethyl-4,5,6,7-tetrahydro-1-benzothiophen-2-yl)thiophen-3-yl]-3,3,4,4,5,5-hexafluorocyclopent-1-en-1-yl}-2-(4-tert-butylphenyl)-6-(4-ethoxy-4-oxobutoxy)-1-benzofuran-5-yl)oxy]butanoate] | >10% | 0.0% | 0.0% | 0.0% | 0.0% | 100.0% | 1.10 | high photostability | 0.92 | 1.29 | prevents the Minus-HF product | –
5 | COc1cc2oc(-c3ccc(C(C)(C)C)cc3)c(C3=C(c4cc(-c5cc6c(s5)C(C)(C)CCC6(C)C)sc4-c4cc5c(s4)C(C)(C)CCC5(C)C)C(F)(F)C(F)(F)C3(F)F)c2cc1OC | <3% | – | – | – | – | – | – | high photostability | 0.91 | 1.29 | – | Ketone (%) ([2]; 1 wt % in Rhodiasolv IRIS): 3.3%; Minus-2HF (%) ([2]; 1 wt % in Rhodiasolv IRIS): 0.0%; Minus-HF (%) ([2]; 1 wt % in Rhodiasolv IRIS): 1.3%; Sulfone (%) ([2]; 1 wt % in Rhodiasolv IRIS): 3.1%; Chromophore Remaining (%) ([2]; 1 wt % in Rhodiasolv IRIS): 92.3%; Ratio of chromophore remaining relative to S340 [2, 5]: 1.01; Sum of degradation product percentages relative to the sum of degradation product percentages for S340 [2, 5]: 0.87
6 | COc1ccc2c(C3=C(c4cc(-c5ccc(C(C)(C)C)s5)sc4-c4ccc(C(C)(C)C)s4)C(F)(F)C(F)(F)C3(F)F)c(-c3ccc(C(C)(C)C)cc3)oc2c1 | <3% | – | – | – | – | – | – | more rapid degradation compared to S340 | 1 | 1.38 | – | Ketone (%) ([2]; 3 wt % in Rhodiasolv IRIS): 0.0%; Minus-2HF (%) ([2]; 3 wt % in Rhodiasolv IRIS): 1.9%; Minus-HF (%) ([2]; 3 wt % in Rhodiasolv IRIS): 6.9%; Sulfone (%) ([2]; 3 wt % in Rhodiasolv IRIS): 0.0%; Chromophore Remaining (%) ([2]; 3 wt % in Rhodiasolv IRIS): 86.9%; Ratio of chromophore remaining relative to S340 ([2]; 3 wt %, interpolated to 0.5 MJ/m^2 of energy exposure at 340 nm): 0.95
7 | COCCCOc1cc2oc(-c3ccc(C(C)(C)C)cc3)c(C3=C(c4cc(-c5cc6c(s5)C(C)(C)CCC6(C)C)sc4-c4cc5c(s4)C(C)(C)CCC5(C)C)C(F)(F)C(F)(F)C3(F)F)c2cc1OCCCOC [Chromophore S388, 3-(2-(2,5-bis(4,4,7,7-tetramethyl-4,5,6,7-tetrahydrobenzo[b]thiophen-2-yl)thiophen-3-yl)-3,3,4,4,5,5-hexafluorocyclopent-1-en-1-yl)-2-(4-(tert-butyl)phenyl)-5,6-bis(3-methoxypropoxy)benzofuran] | >10% | 0.2% | 0.0% | 0.0% | 0.4% | 97.7% | 1.07 | high photostability | 0.89 | 1.28 | prevents the Minus-HF product | –

From US20220220100A1 (SOLUTIA CANADA INC., priority 2019, published 2022)
